Reference: patent US10202408B2, “Prodrugs and methods of use thereof” (Health Innovation Ventures B.V., priority 2012, dated 2019)
In brackets after ≈: the same amount, converted by molar mass.

Test: Solubility determined by HPLC
Type: physicochemical
Conditions: plasma or biological fluid; α-Minimal Essential Media (α-MEM) containing 5% Fetal Calf Serum (FCS)
Procedure: Table Footnote: ^aDetermined in α-Minimal Essential Media (α-MEM) containing 5% Fetal Calf Serum (FCS). ^bDetermined in Phosphate Buffered Saline (PBS) containing 2 equivalents of sodium bicarbonate. ^cDetermined in Lactate Buffer at pH=4.
Solubility and stability of compounds in media (+5% Fetal calf serum), phosphate buffered saline (+sodium bicarbonate) or lactate buffer (at pH=4) were determined by HPLC.

For `CS(=O)(=O)c1cc([N+](=O)[O-])c(C(N)=O)cc1N(CCBr)CCBr` [compound 4], the solubility was 68 µM (≈ 32.2 µg/mL).
